Data taken from publication PMC8799717, “Pharmacological targeting PIKfyve and tubulin as an effective treatment strategy for double-hit lymphoma” (Cell Death Discovery, 2022).

Key:
Test in all cases: biochemical
Set-up in all cases: KINOMEscan active-site-directed competition binding panel, 468 kinases, percent of DMSO control at 1 uM
Conditions in all cases: KINOMEscan binding, percent of DMSO control; read-out: Ctrl%
PRKX = PRKX (Homo sapiens, UniProt P51817)
HIPK4 = HIPK4 (Homo sapiens, UniProt Q8NE63)
NEK9 = NEK9 (Homo sapiens, UniProt Q8TD19)
FLT3(ITD,D835V) = FLT3(ITD,D835V) (Homo sapiens, UniProt P36888, D835V/ITD)
VRK2 = VRK2 (Homo sapiens, UniProt Q86Y07)
TEC = TEC (Homo sapiens, UniProt P42680)
CSNK1G2 = CSNK1G2 (Homo sapiens, UniProt P78368)
HASPIN = HASPIN (Homo sapiens, UniProt Q8TF76)
FLT3(D835Y) = FLT3(D835Y) (Homo sapiens, UniProt P36888, D835Y)
MST3 = molecular target: T1, MST3 (Homo sapiens, UniProt Q9Y6E0)
T1 construct: gene STK24

SNRK = SNRK (Homo sapiens, UniProt Q9NRH2)
TIE2 = molecular target: T2, TIE2 (Homo sapiens, UniProt Q02763)
T2 construct: gene TEK

RET(V804M) = RET(V804M) (Homo sapiens, UniProt P07949, V804M)
FGFR1 = FGFR1 (Homo sapiens, UniProt P11362)
TTK = TTK (Homo sapiens, UniProt P33981)
PCTK3 = molecular target: T3, PCTK3 (Homo sapiens, UniProt Q07002)
T3 construct: gene CDK18

DAPK3 = DAPK3 (Homo sapiens, UniProt O43293)
HUNK = HUNK (Homo sapiens, UniProt P57058)
ERK1 = molecular target: T4, ERK1 (Homo sapiens, UniProt P27361)
T4 construct: gene MAPK3

MST1R = MST1R (Homo sapiens, UniProt Q04912)
PRKCE = PRKCE (Homo sapiens, UniProt Q02156)
MAPKAPK5 = MAPKAPK5 (Homo sapiens, UniProt Q8IW41)
JNK2 = molecular target: T5, JNK2 (Homo sapiens, UniProt P45984)
T5 construct: gene MAPK9

GRK7 = GRK7 (Homo sapiens, UniProt Q8WTQ7)

NEK9, sequence (Q8TD19 whole entry): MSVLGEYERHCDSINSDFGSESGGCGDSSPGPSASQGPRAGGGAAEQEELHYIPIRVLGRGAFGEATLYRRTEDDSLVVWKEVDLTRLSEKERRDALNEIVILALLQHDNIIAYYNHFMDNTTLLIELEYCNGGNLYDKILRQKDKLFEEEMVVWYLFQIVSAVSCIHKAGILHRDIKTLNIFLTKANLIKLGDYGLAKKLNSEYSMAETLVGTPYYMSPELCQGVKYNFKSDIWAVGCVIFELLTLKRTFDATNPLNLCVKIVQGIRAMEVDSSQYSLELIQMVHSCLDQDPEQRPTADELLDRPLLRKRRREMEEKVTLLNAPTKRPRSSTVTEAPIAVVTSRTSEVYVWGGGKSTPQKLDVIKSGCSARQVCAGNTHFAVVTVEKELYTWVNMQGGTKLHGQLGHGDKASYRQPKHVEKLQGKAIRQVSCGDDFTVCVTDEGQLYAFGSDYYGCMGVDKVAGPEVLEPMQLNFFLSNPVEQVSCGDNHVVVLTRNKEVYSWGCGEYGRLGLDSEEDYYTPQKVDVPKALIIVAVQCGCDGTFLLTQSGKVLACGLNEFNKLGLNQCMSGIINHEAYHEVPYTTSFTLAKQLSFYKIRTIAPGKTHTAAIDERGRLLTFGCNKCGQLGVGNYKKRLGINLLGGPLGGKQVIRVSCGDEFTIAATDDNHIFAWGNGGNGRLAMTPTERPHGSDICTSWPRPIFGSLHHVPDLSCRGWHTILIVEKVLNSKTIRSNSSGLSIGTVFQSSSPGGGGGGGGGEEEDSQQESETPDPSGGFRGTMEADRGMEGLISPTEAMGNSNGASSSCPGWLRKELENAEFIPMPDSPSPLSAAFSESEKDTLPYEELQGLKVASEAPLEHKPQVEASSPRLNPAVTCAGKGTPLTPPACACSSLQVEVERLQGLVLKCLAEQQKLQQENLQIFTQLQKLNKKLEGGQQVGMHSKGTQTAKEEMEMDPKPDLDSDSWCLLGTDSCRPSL
TTK, sequence (P33981 whole entry): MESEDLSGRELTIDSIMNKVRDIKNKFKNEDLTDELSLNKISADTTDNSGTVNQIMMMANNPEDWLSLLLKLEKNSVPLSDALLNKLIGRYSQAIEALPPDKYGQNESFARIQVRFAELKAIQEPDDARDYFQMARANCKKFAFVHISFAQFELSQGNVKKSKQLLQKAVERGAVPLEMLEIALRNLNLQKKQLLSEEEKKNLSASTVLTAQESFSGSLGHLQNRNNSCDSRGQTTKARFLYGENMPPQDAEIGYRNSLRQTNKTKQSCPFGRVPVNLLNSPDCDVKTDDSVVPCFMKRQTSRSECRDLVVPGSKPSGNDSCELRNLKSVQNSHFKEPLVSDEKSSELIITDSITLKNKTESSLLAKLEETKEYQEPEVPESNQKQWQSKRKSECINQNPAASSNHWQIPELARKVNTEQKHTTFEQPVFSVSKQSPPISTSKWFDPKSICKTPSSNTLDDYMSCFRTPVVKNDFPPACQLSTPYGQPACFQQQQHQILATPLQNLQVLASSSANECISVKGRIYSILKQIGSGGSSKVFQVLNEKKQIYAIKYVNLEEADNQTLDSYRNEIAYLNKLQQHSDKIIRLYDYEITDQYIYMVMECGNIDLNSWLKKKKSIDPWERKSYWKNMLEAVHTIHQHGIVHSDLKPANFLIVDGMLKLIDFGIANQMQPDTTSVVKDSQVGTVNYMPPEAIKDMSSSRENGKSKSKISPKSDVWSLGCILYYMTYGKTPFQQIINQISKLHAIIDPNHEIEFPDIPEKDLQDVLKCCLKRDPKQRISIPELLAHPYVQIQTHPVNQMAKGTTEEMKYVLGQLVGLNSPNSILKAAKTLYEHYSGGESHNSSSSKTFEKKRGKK
MST1R, sequence (Q04912 whole entry): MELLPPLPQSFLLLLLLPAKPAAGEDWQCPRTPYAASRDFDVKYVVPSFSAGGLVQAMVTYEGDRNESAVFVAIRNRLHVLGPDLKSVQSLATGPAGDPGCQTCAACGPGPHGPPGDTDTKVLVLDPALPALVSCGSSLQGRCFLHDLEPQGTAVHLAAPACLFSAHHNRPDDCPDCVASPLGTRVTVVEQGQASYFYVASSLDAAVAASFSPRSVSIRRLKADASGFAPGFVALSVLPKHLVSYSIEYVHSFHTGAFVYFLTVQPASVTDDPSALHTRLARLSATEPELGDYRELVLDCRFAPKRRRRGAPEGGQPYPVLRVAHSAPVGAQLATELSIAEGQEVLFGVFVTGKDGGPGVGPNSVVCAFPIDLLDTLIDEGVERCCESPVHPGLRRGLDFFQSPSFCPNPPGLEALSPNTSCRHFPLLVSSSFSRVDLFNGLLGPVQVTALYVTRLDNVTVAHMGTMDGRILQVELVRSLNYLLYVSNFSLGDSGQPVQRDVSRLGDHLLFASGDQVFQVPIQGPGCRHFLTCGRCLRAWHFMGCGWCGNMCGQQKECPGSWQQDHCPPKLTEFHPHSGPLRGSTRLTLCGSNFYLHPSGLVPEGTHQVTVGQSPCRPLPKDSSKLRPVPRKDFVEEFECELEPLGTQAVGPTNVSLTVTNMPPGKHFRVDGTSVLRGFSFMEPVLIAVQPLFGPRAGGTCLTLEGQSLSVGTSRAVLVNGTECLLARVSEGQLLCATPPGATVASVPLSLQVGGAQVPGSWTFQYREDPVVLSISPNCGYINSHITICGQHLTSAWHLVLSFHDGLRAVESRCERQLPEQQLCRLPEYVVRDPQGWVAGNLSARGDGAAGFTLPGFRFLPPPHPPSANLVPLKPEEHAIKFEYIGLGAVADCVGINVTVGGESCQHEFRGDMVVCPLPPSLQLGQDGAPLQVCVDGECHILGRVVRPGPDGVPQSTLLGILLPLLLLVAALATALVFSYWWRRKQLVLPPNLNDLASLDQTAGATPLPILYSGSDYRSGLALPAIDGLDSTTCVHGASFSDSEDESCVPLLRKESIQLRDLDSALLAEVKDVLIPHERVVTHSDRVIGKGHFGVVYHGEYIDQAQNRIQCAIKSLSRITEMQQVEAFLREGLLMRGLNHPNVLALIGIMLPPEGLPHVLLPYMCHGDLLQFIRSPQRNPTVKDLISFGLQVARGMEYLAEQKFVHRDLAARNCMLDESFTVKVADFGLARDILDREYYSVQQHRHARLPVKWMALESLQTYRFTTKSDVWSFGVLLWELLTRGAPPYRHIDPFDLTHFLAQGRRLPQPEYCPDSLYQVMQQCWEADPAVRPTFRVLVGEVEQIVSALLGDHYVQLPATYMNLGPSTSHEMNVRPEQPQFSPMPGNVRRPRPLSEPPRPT
TEC, sequence (P42680 whole entry): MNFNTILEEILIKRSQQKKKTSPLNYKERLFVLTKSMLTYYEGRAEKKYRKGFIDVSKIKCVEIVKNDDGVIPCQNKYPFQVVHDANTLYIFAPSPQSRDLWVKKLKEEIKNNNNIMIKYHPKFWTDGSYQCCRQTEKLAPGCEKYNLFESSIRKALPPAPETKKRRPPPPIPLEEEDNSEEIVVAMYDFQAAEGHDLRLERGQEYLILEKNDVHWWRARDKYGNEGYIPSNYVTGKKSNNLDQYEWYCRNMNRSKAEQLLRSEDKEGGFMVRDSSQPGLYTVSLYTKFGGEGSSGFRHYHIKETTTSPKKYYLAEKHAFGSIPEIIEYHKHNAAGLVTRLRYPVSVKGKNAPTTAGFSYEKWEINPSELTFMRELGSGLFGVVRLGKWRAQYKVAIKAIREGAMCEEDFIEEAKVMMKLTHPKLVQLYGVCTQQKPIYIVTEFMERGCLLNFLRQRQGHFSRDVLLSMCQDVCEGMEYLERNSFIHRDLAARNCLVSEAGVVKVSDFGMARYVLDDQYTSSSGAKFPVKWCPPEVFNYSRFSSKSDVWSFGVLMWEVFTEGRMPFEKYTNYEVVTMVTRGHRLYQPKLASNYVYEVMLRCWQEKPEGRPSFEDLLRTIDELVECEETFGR
T5 sequence (P45984 whole entry): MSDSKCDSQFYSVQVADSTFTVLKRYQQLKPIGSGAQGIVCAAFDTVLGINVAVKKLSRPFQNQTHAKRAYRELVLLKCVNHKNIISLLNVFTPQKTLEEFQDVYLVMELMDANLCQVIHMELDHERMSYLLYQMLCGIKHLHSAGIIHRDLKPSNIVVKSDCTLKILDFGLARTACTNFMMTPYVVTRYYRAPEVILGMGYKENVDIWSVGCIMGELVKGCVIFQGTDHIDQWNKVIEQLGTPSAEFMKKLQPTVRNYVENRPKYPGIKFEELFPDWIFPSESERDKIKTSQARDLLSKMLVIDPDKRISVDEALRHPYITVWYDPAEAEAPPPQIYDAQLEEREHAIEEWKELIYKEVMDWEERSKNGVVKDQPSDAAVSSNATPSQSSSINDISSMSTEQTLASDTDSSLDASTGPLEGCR
T1 sequence (Q9Y6E0 whole entry): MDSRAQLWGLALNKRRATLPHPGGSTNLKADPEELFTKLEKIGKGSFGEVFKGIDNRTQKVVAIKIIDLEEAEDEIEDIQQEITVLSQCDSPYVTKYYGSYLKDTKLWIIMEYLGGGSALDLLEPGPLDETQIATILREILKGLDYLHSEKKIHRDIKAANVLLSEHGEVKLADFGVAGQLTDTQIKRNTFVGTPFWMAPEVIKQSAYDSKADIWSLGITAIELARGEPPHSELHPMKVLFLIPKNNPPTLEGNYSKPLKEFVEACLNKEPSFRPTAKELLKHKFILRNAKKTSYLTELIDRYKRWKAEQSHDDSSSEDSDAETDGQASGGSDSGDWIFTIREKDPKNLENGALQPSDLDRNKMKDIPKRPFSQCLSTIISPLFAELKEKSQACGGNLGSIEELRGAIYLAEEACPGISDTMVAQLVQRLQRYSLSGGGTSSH

Cc1ccc(NC(=O)c2cccc(C(F)(F)F)c2)cc1Nc1cc(-c2cccnc2)nc2[nH]ccc12 [HZX-02-059]
remaining binding at 1 µM (PRKX): 100%
remaining binding at 1 µM (HIPK4): 86%
remaining binding at 1 µM (NEK9): 71%
remaining binding at 1 µM (FLT3(ITD,D835V)): 100%
remaining binding at 1 µM (VRK2): 100%
remaining binding at 1 µM (TEC): 96%
remaining binding at 1 µM (CSNK1G2): 96%
remaining binding at 1 µM (HASPIN): 100%
remaining binding at 1 µM (FLT3(D835Y)): 100%
remaining binding at 1 µM (MST3): 100%
remaining binding at 1 µM (SNRK): 71%
remaining binding at 1 µM (TIE2): 66%
remaining binding at 1 µM (RET(V804M)): 95%
remaining binding at 1 µM (FGFR1): 93%
remaining binding at 1 µM (TTK): 99%
remaining binding at 1 µM (PCTK3): 84%
remaining binding at 1 µM (DAPK3): 96%
remaining binding at 1 µM (HUNK): 91%
remaining binding at 1 µM (ERK1): 99%
remaining binding at 1 µM (MST1R): 89%
remaining binding at 1 µM (PRKCE): 96%
remaining binding at 1 µM (MAPKAPK5): 100%
remaining binding at 1 µM (JNK2): 99%
remaining binding at 1 µM (GRK7): 80%
